{"source": "patent US6521751B1", "about": "“Recombinant nucleic acid sequences and methods for determining both genotoxicity and mutagenicity of a sample and the kinetics of the genotoxicity” (Vlaamse Instelling voor Technologisch Onderzoek (VITO), priority 1998, dated 2003)", "key": {"S. typhimurium": {"system": "S. typhimurium", "conditions": "cited from earlier work"}, "[1]": {"system": "S. typhimurium TA98 containing pMOL1068", "conditions": "TA98 pMOL1068"}, "[2]": {"system": "TA98 and TA104 containing pMOL1067", "assay": "Induction kinetics with pMOL1067", "format": "cell-based, S. typhimurium", "procedure": "The reaction of the different constructs when more than one genotoxic product is present in the test sample. was examined. This is an important aspect, since environmental samples often contain more than one genotoxic pollutant. Also in this regard many pharmaceutical products that have to be tested for genotoxicity can be a combination of different active genotoxic substances (e.g. anticancer or anti AIDS drugs). The experiments were performed with TA98 and TA104 containing either pMOL1067 or pMOL890. These two constructs were chosen since they show similar induction kinetics and the best signal/noise ratio's in S. typhimurium (see FIG. 7 and FIG. 8). As test products, several combinations of MMS and novobiocine were taken. These products were used since they were found by us to have different induction kinetics (e.g., with pMOL1067 MMS gives a maximum after 2 hours, while the maximal signal/noise ratio with novobiocine is observed after 4 hours)."}, "[3]": {"system": "S. typhimurium TA98 containing pMOL890", "conditions": "TA98 pMOL890"}, "[4]": {"system": "S. typhimurium TA104 containing pMOL1067", "conditions": "TA104 pMOL1067"}, "[5]": {"system": "TA 98 and TA104 strains containing pMOL1067 or pMOL1068", "conditions": "TA 98 and TA104 strains containing pMOL1067 or pMOL1068"}, "[6]": {"system": "S. typhimurium TA104 containing pMOL1066", "conditions": "TA104 pMOL1066"}, "[7]": {"system": "S. typhimurium TA98* containing pMOL890"}, "[8]": {"system": "S. typhimurium TA104* containing pMOL890"}, "[9]": {"system": "S. typhimurium TA104 containing pMOL1069", "conditions": "TA104 pMOL1069"}, "[10]": {"system": "S. typhimurium TA104 containing pMOL1068", "conditions": "TA104 pMOL1068"}, "[11]": {"system": "S. typhimurium TA104 containing pMOL890", "conditions": "TA104 pMOL890"}, "[12]": {"system": "S. typhimurium TA100* containing pMOL890"}, "[13]": {"system": "S. typhimurium TA1535* containing pMOL890"}, "[14]": {"system": "S. typhimurium TA98 containing pMOL1067", "conditions": "TA98 pMOL1067"}, "E. coli (sfiA-lacZ)": {"system": "E. coli (sfiA-lacZ)", "conditions": "SOS chromotest, cited from earlier work"}, "[15]": {"system": "S. typhimurium TA1538* containing pMOL890"}}, "note": "“And” between values parts separate entries of the source, which are not always exact repeats. Equal entries are not always repeated. Where two headings read alike, the source gives them in different places."}
{"smiles": "COS(C)(=O)=O", "note": "[MMS, Methylmethanesulphonate]", "values": [{"measurement": "AMES (result)", "setting": "S. typhimurium", "value": "pos"}, {"measurement": "MINIMAL DETECTED CONCENTRATION (MDC)", "setting": "S. typhimurium", "value": 60, "unit": "nmol/assay"}, {"measurement": "MINIMAL DETECTED CONCENTRATION (MDC)", "setting": "[1]", "value": 7.3, "unit": "nmol/assay"}, {"measurement": "Number of His^+ revertants", "setting": "S. typhimurium TA1535; MMS 0.1 μl", "value": "27 and 18"}, {"measurement": "Number of His^+ revertants", "setting": "S. typhimurium TA1535; MMS 0.2 μl", "value": "23 and 24"}, {"measurement": "Number of His^+ revertants", "setting": "S. typhimurium TA1535; MMS 1 μl", "value": "27 and 38"}, {"measurement": "time of maximal signal/noise ratio", "setting": "[2]", "value": 2, "unit": "h"}, {"measurement": "MINIMAL DETECTED CONCENTRATION (MDC)", "setting": "[3]", "value": 7.3, "unit": "nmol/assay"}, {"measurement": "Conclusion (Ames test)", "setting": "S. typhimurium TA1538", "value": "−"}, {"measurement": "MINIMAL DETECTED CONCENTRATION (MDC)", "setting": "[4]", "value": 7.3, "unit": "nmol/assay"}, {"measurement": "OUTCOME (genotoxicity, final outcome)", "setting": "[5]", "value": "pos"}, {"measurement": "Conclusion (Ames test)", "setting": "S. typhimurium TA104", "value": "+"}, {"measurement": "Number of His^+ revertants", "setting": "S. typhimurium TA100; MMS 0.1 μl", "value": "344 and 392"}, {"measurement": "Number of His^+ revertants", "setting": "S. typhimurium TA100; MMS 0.2 μl", "value": "604 and 560"}, {"measurement": "Number of His^+ revertants", "setting": "S. typhimurium TA100; MMS 1 μl", "value": "1120 and 1282"}, {"measurement": "MINIMAL DETECTED CONCENTRATION (MDC)", "setting": "[6]", "value": 7.3, "unit": "nmol/assay"}, {"measurement": "Number of His^+ revertants", "setting": "[7]; MMS 0.1 μl", "value": "25 and 27"}, {"measurement": "Number of His^+ revertants", "setting": "[7]; MMS 0.2 μl", "value": "26 and 28"}, {"measurement": "Number of His^+ revertants", "setting": "[7]; MMS 1 μl", "value": "22 and 27"}, {"measurement": "Number of His^+ revertants", "setting": "[8]; MMS 0.1 μl", "value": "224 and 218"}, {"measurement": "Number of His^+ revertants", "setting": "[8]; MMS 0.2 μl", "value": "428 and 325"}, {"measurement": "Number of His^+ revertants", "setting": "[8]; MMS 1 μl", "value": "672 and 724"}, {"measurement": "MINIMAL DETECTED CONCENTRATION (MDC)", "setting": "[9]", "value": 7.3, "unit": "nmol/assay"}, {"measurement": "MINIMAL DETECTED CONCENTRATION (MDC)", "setting": "[10]", "value": 7.3, "unit": "nmol/assay"}, {"measurement": "MINIMAL DETECTED CONCENTRATION (MDC)", "setting": "[11]", "value": 7.3, "unit": "nmol/assay"}, {"measurement": "Number of His^+ revertants", "setting": "[12]; MMS 0.1 μl", "value": "160 and 152"}, {"measurement": "Number of His^+ revertants", "setting": "[12]; MMS 0.2 μl", "value": "242 and 314"}, {"measurement": "Number of His^+ revertants", "setting": "[12]; MMS 1 μl", "value": "536 and 528"}, {"measurement": "Conclusion (Ames test)", "setting": "S. typhimurium TA98", "value": "−"}, {"measurement": "Number of His^+ revertants", "setting": "[13]; MMS 0.1 μl", "value": 32}, {"measurement": "Number of His^+ revertants", "setting": "[13]; MMS 0.2 μl", "value": 24}, {"measurement": "Number of His^+ revertants", "setting": "[13]; MMS 1 μl", "value": "29 and 26"}, {"measurement": "MINIMAL DETECTED CONCENTRATION (MDC)", "setting": "[14]", "value": 7.3, "unit": "nmol/assay"}, {"measurement": "SOS (result)", "setting": "E. coli (sfiA-lacZ); Table 3", "value": "pos"}, {"measurement": "MINIMAL DETECTED CONCENTRATION (MDC)", "setting": "E. coli (sfiA-lacZ); literature values", "value": 20, "unit": "nmol/assay"}, {"measurement": "Number of His^+ revertants", "setting": "[15]; MMS 0.1 μl", "value": "36 and 28"}, {"measurement": "Number of His^+ revertants", "setting": "[15]; MMS 0.2 μl", "value": "28 and 27"}, {"measurement": "Number of His^+ revertants", "setting": "[15]; MMS 1 μl", "value": "27 and 29"}]}
